According to patent publication US7098211B2, “Compounds having simultaneous ability to block L-type calcium channels and to inhibit phosphodiesterase type 3 activity” (Artesian Therapeutics, Inc., priority 2002, dated 2006):
“And” between values parts separate entries of the source, which are not always exact repeats. Equal values may be shown once.

Columns and labels:
[1] = biological target: T1, Human platelet cyclic AMP phosphodiesterase (PDE-3) (Homo sapiens, UniProt Q14432); assay: cAMP PDE-3 inhibitory activity assay; format: biochemical; settings: 10 minutes at 30° C., n=3 per concentration
T1 construct: Human platelet cyclic AMP phosphodiesterase was prepared; from tissue; host or cells: human platelets
Procedure: Human platelet cyclic AMP phosphodiesterase was prepared according to the method of Alvarez et al. (Mol. Pharmacol. 1986, 29, 554). The PDE incubation medium contained 10 mM Tris-HCl buffer, pH 7.7, 10 mM MgSO4, and 1 μM […] (0.2 μCi) in a total volume of 1.0 mL. Test compounds were dissolved in dimethyl sulfoxide (DMSO) immediately prior to addition to the incubation medium, and the resulting mixture was allowed to stand for 10 minutes prior to the addition of enzyme. Following the addition of PDE, the contents were mixed and incubated for 10 minutes at 30° C. Three assays each were performed for each of five test compound concentrations, the mean of the determinations (n=3) at each concentration was plotted, and IC50 values were determined graphically.

[2] = tested on: guinea pig papillary muscle; assay: Contraction-relaxation in guinea pig papillary muscle; format: cell-based; settings: FIG. 1
Procedure: Male guinea pigs (400–500 g) were killed by cervical dislocation and the hearts were quickly removed, immersed in ice-cold, and oxygenated in Kreb's solution containing 113.1 mM NaCl, 4.6 mM KCl, 2.45 mM CaCl2, 1.2 mM MgCl2, […], and 10.0 mM glucose; pH 7.4 with 95% O2–5% CO2. The ventricles were opened and papillary muscles were removed with chordae tandineae and a base of surrounding tissue intact. The tendinous ends of the muscles were ligated with silk thread, and the muscles were mounted in vertical, double-jacketed organ baths containing 10 mL of oxygenated Kreb's solution kept at 37° C. […]
Following a 45-minute equilibration period under a 1 gram tension, control contractions were elicited by stimulating the muscle using stainless steel field electrodes at a frequency of 1.0 Hz, 2.0 ms duration. […] Control contraction-relaxation cycles were recorded for 30 seconds continuously. […] A series of washout contractions was recorded following a change of solution. When the amplitude of contraction returned to that measured in control conditions, a single concentration of positive control was then tested on the tissue in the same manner as Compound 5 and milrinone.
Contraction amplitude as well as the time courses of contraction and relaxation were quantified. […]

[3] = tested on: paced dog model of congestive heart failure; assay: Paced dog model of congestive heart failure; format: in vivo; settings: for ventricular tachycardia: all tested dosages
Procedure: Compound 8 was evaluated in a paced dog model of congestive heart failure. Pacing-induced heart failure in the dog produces alterations in heart physiology and molecular signaling similar to what is seen in the failing human heart, making this an appropriate model to test compounds that can potentially improve calcium homeostasis and heart failure physiology. Heart failure was induced by increasing the heart rate to 220–240 beats per minute (bpm) for a six week period. The degree of heart failure was documented by both pressure measurements and echocardiogram (changes in contractility, ejection fraction, ventricular relaxation, fractional area shortening, isovolumic relaxation time). Compound 8 or the milrinone were administered following the induction of heart failure.

T1 sequence (Q14432 whole entry): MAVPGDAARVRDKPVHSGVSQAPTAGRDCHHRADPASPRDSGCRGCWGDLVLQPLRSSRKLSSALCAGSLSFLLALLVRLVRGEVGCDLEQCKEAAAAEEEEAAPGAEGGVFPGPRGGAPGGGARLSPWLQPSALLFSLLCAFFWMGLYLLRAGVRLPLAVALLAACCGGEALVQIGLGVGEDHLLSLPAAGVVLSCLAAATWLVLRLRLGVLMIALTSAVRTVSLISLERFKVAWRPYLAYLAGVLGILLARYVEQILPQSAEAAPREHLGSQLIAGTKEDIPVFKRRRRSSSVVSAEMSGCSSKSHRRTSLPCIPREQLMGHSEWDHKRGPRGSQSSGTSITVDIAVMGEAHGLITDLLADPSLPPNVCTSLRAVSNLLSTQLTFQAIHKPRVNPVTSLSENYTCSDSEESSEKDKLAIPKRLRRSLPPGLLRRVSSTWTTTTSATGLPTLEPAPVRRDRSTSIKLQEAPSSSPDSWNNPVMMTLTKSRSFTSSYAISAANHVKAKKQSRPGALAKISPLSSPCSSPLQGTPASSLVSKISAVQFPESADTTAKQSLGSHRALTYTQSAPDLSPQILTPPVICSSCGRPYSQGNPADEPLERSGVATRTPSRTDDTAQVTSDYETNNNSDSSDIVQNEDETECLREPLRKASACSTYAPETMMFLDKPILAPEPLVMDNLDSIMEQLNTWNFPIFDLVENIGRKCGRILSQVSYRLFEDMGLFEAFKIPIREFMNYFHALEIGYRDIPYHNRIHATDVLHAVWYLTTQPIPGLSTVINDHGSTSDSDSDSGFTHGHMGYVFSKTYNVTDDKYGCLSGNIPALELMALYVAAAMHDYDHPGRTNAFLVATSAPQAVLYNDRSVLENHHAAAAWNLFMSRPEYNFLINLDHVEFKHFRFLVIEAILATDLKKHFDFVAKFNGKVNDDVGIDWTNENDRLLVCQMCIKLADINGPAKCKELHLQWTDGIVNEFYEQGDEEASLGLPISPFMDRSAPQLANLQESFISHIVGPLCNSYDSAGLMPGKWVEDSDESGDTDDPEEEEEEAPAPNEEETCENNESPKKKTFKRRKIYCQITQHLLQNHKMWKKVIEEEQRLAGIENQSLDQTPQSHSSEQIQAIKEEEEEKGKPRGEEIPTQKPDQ

CCOC(=O)C1=C(COCCNC(=O)CCCOc2ccc3[nH]c(=O)ccc3c2)NC(C)=C(C(=O)OC)C1c1ccccc1Cl (stereo not drawn) [Compound 5, methyl 4-(2-chlorophenyl)-5-(ethoxycarbonyl)-2-methyl-6-({2-[4-(2-oxo(6-hydroquinolyloxy))butanoylamino]ethoxy}methyl)-1,4-dihydropyridine-3-carboxylate]
IC50 [1]: 300 nM | inotropic effect (muscle contractility) ([2]; cumulative concentrations, stimulated at 1.0 Hz): positive inotropic effect (increase in muscle contractility) in a dose-dependent manner | maximum increase in contractility compared with milrinone ([2]; guinea pig papillary muscle): less than the maximum increase produced by milrinone

COC(=O)C1=C(C)NC(COCCNC(=O)CCCOc2ccc3[nH]c(=O)ccc3c2)=C(C(=O)OC)C1c1ccccc1[N+](=O)[O-] (stereo not drawn) [Compound 6, methyl 5-(methoxycarbonyl)-2-methyl-4-(2-nitrophenyl)-6-({2-[4-(2-oxo(6-hydroquinolyloxy))butanoylamino]ethoxy}methyl)-1,4-dihydropyridine-3-carboxylate]
IC50 [1]: 270 nM and 110 nM

COC(=O)C1=C(C)NC(COCCCOc2ccc3[nH]c(=O)ccc3c2)=C(C(=O)OC)C1c1ccccc1Cl (stereo not drawn) [Compound 7, methyl 4-(2-chlorophenyl)-5-(methoxycarbonyl)-2-methyl-6-{[3-(2-oxo(6-hydroquinolyloxy))propoxy]methyl}-1,4-dihydropyridine-3-carboxylate]
IC50 [1]: 340 nM and 420 nM

COC(=O)C1=C(C)NC(COCCNC(=O)COc2ccc(C3=NNC(=O)CC3)cc2Cl)=C(C(=O)OC)C1c1ccccc1Cl (stereo not drawn) [Compound 8, methyl 6-[(2-{2-[2-chloro-4-(6-oxo(1,4,5-trihydropyridazin-3-yl))phenoxy]acetylamino}ethoxy)methyl]-4-(2-chlorophenyl)-5-(methoxycarbonyl)-2-methyl-1,4-dihydropyridine-3-carboxylate]
IC50 [1]: 80 nM | contractility (dp/dt max) and ejection fraction, maximal increase relative to that produced by milrinone ([3]; % of that produced by milrinone, FIG. 2): 53–61% | ventricular relaxation (dp/dt min, Tau and isovolumic relaxation time), maximal increase relative to that produced by milrinone ([3]; % of that produced by milrinone, FIG. 3): 63–88% | contractility (dp/dt max) and ejection fraction ([3]; dogs in heart failure, FIG. 2): dose-dependent response | ventricular relaxation (dp/dt min, Tau and isovolumic relaxation time) ([3]; dogs in heart failure, FIG. 3): increased ventricular relaxation in a dose-dependent manner | ventricular tachycardia ([3]; dogs in heart failure): no ventricular tachycardia | in vivo inhibition of PDE-3 and calcium channel antagonism ([3]; systemic administration, dogs in heart failure): demonstrated in vivo inhibition of PDE-3 and calcium channel antagonism | QT prolongation ([3]; under acute conditions): no apparent QT prolongation

CCOC(=O)C1=C(COCCNC(=O)COc2ccc(C3=NNC(=O)CC3)cc2Cl)NC(C)=C(C(=O)OC)C1c1ccccc1Cl (stereo not drawn) [Compound 9, methyl 6-[(2-{2-[2-chloro-4-(6-oxo(1,4,5-trihydropyridazin-3-yl))phenoxy]acetylamino}ethoxy)methyl]-4-(2-chlorophenyl)-5-(ethoxycarbonyl)-2-methyl-1,4-dihydropyridine-3-carboxylate]
IC50 [1]: 48 nM

COC(=O)C1=C(C)NC(COCCNC(=O)CCCOc2ccc3[nH]c(=O)ccc3c2)=C(C(=O)OC)C1c1ccccc1Cl (stereo not drawn) [Compound 10, methyl 4-(2-chlorophenyl)-5-(methoxycarbonyl)-2-methyl-6-({2-[4-(2-oxo(6-hydroquinolyloxy))butanoylamino]ethoxy}methyl)-1,4-dihydropyridine-3-carboxylate]
IC50 [1]: 270 nM

CCOC(=O)C1=C(COCCNC(=O)COc2ccc3[nH]c(=O)ccc3c2)NC(C)=C(C(=O)OC)C1c1ccccc1Cl (stereo not drawn) [Compound 11, methyl 4-(2-chlorophenyl)-5-(ethoxycarbonyl)-2-methyl-6-({2-[2-(2-oxo(6-hydroquinolyloxy))acetylamino]ethoxy}methyl)-1,4-dihydropyridine-3-carboxylate]
IC50 [1]: 100 nM

COC(=O)C1=C(C)NC(COCCNC(=O)COc2ccc3[nH]c(=O)ccc3c2)=C(C(=O)OC)C1c1ccccc1Cl (stereo not drawn) [Compound 12, methyl 4-(2-chlorophenyl)-5-(methoxycarbonyl)-2-methyl-6-({2-[2-(2-oxo(6-hydroquinolyloxy))acetylamino]ethoxy}methyl)-1,4-dihydropyridine-3-carboxylate]
IC50 [1]: 240 nM

Cc1[nH]c(=O)c(C#N)cc1-c1ccncc1 [milrinone, reference compound]
ventricular tachycardia ([3]; dogs in heart failure): demonstrated ventricular tachycardia
